# According to patent EP4563579A1, “MACROCYCLIC EGFR INHIBITOR, AND PREPARATION METHOD THEREFOR AND PHARMACEUTICAL USE THEREOF” (Abbisko Therapeutics Co., Ltd., priority 2022, dated 2024):
# Assays:
# [1] = test system: Ba/F3 EGFR-L858R-C797S (LC); assay: Cell proliferation assay (CellTiter-Glo), Ba/F3 LC; assay type: cell-based; settings: Mus musculus, BaF3; Ba/F3 EGFR-L858R-C797S cells, 72 hour incubation, CTG readout
# Outline: (§1)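 Cells seeded overnight, then exposed 72 h at 37 °C, 5% CO2 to nine 3.16-fold dilutions (top final 10 µM, 0.1% DMSO), triplicate wells. Viability read by CellTiter-Glo luminescence, with a T0 plate read at dosing; IC50 (nM) by non-linear sigmoidal regression.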
# [2] = Pharmacokinetic experiment in mice; assay type: in vivo; settings: ICR mice; for AUC(0-t) / Cmax / half-life: male, mouse, single oral administration (PO), 10 mg/kg, plasma
# Description: The purpose of this trial is to study the pharmacokinetic behavior of some compounds of the present invention, and the administration method is: Single oral administration (PO) to ICR mice.
# The compounds used in this trial are from the compounds in the specific examples of the present invention and the listed positive compounds.
# ICR mice male N=9 original source: Shanghai Sippr-Bk Lab Animal Co., Ltd.
# The compounds are weighed and dissolved in the corresponding solution (10% PG + 10% Solutol® + 80% pH3 citrate buffer). The mixture is then shaken well and sonicated to prepare a 1 mg/mL stock solution. Nine mice are orally administered at a dose of 10 mg/kg (or IV 2 mg/kg) after an overnight fast.
# About 90 µL of blood is collected via the submandibular vein per time point, heparin sodium anticoagulant is added, the sample is placed on ice after collection, and plasma is centrifuged within 1 hour (centrifugation conditions: 8,000 rpm, 6 minutes, 2-8°C). The blood collection timepoints are 0, 0.25, 0.5, 1, 2, 4, 6, 8 and 24 h. The samples are stored in a -20°C refrigerator.
# The plasma sample is 40 µL, 160 µL of ice-cold acetonitrile containing internal standard is added, vortexed for 3 minutes, and centrifuged at 11,000 rpm for 5 minutes. 100 µL of the supernatant is taken and added to 100 µL of water, 5 µL of the sample is taken and injected into LC/MS/MS for analysis.
# [3] = test system: Ba/F3 EGFR-DEL19-T790M-C797S (DTC); assay: Cell proliferation assay (CellTiter-Glo), Ba/F3 DTC; assay type: cell-based; settings: Ba/F3 EGFR-DEL19-T790M-C797S cells, 72 hour incubation, CTG readout; read-out: IC50 BaF3 DTC
# Protocol: (§2) • DMEM Medium (Gibco, Cat#11965118) • RPMI1640 Medium (Gibco, Cat#11875119) • Fetal Bovine Serum (FBS) (GBICO, Cat#10099-141) • CellTiter-Glo® Luminescent Cell Viability Assay Kit (Promega, Cat#G7572) 96-well, Black, Clear Flat Bottom Plate (Corning®, Cat# 3603)
# (§3) • SpectraMax Multimode Microplate Reader MD, 2104-0010A; • CO2 Incubator, Thermo Scientific 3100 Series; • Biosafety Cabinet, Thermo Scientific, 1300 Series A2; • Inverted Microscope, Olympus, CKX41SF; • Siemens Refrigerator, KK25E76TI.
# (§4) • 1. Cell Culture and Inoculation: • (1) Harvest cells in a logarithmic growth phase and count the cells using a […]. Test cell viability using a trypan blue exclusion method to ensure that cell viability is above 90%. • (2) Adjust the cell concentration to desired final density; and add 90 µL of cell suspension to a 96-well plate. • (3) Incubate the cells overnight at 37°C, under 5% CO2 and 95% humidity in the 96-well plate. • 2. T0 Reference Data: • (1) Add 10 µL PBS to each well of the T0 plate containing cells. • (2) Thaw the CTG reagent and equilibrate the plate to room temperature for 30 minutes. • (3) Add an equal volume of CTG solution to each well. • (4) Lyse cells by shaking on an orbital shaker for 5 minutes. • (5) Leave the plate at room temperature for 20 minutes to stabilize the luminescence signal. • (6) Read the T0 […]. • 3. Compound Dilution and Addition • (1) Add a corresponding volume of DMSO to a corresponding compound powder according to the compound information sheet to prepare a 10 mM stock solution. • (2) Prepare 1000-fold and 3.16-fold diluted compound solutions. • (3) Dilute the 1000× diluted compound solution 100-fold with PBS to prepare a 10-fold compound solution, with a maximum concentration of 10 µM, nine concentrations and 3.16-fold dilution. Then add 10 µL of the drug solution concentration to individual wells of the 96-well plate seeded with cells. Test each compound concentration in triplicate wells, and the final DMSO concentration is 0.1%. • (4) Incubate the cells in the 96-well plate containing the drug compounds at 37°C, under 5% CO2, and 95% humidity for an additional 72 hour period prior to performing the CTG analysis. • 4. Fluorescence Signal Reading • (1) Thaw the CTG reagent and equilibrate the plate to room temperature for 30 minutes. • (2) Add an equal volume of CTG solution to each well. • (3) Lyse cells by shaking on an orbital shaker for 5 minutes. • (4) Leave the plate at room temperature for 20 minutes to stabilize the […]. • (5) Read fluorescence value. • 5. Data Processing
# (§5) Analyze the data by using GraphPad Prism 7.0 software, and use Non-linear S-curve regression to fit the dose-response curves, to calculate the IC50 values (in nM). The specific experiment results are presented in Table 1: [formula] Table 1: Biology Test Results
# A431 WT = assay: Cell proliferation assay (CellTiter-Glo), A431 WT; assay type: cell-based; settings: Homo sapiens, A-431; A431 WT cells, 72 hour incubation, CTG readout
# Outline: as §1
# [4] = test system: Ba/F3 EGFR-L858R-T790M-C797S (LTC); assay: Cell proliferation assay (CellTiter-Glo), Ba/F3 LTC; assay type: cell-based; settings: Mus musculus, BaF3; Ba/F3 EGFR-L858R-T790M-C797S cells, 72 hour incubation, CTG readout
# Outline: as §1
# [5] = test system: Ba/F3 EGFR-DEL19-C797S (DC); assay: Cell proliferation assay (CellTiter-Glo), Ba/F3 DC; assay type: cell-based; settings: Mus musculus, BaF3; Ba/F3 EGFR-DEL19-C797S cells, 72 hour incubation, CTG readout
# Protocol: as §2, §3, §4, §5
IC50 [1],AUC(0-t) [2],Cmax [2],half-life [2],IC50 [3],IC50 (A431 WT),IC50 [4],IC50 [5],Oral F ([2]; PO 10 mg/kg (IV 2 mg/kg)),SMILES
17.4 nM,1030 ng·h/mL,88.2 ng/mL,3.5 h,7.2 nM,323 nM,10.5 nM,7.9 nM,–,"CN1CCC(C#Cc2nn3c4cc(ncc24)Nc2ccnc(n2)-c2cnn(C)c2OCC2(CCCC2)C3)CC1 [Example 1, 1'-methyl-3'-((1-methylpiperidin-4-yl)ethynyl)spiro(cyclopentane-1,6'-8-oxa-3-aza-4(6,1)-pyrazolo[4,3-c]pyridina-2(2,4)-pyrimidina-1(4,5)-pyrazolacyclooctaphane)]"
30.6 nM,3920 ng·h/mL,307 ng/mL,5.6 h,6.8 nM,439 nM,10.4 nM,19.4 nM,–,"CN1CCC(C#Cc2nn3c4cc(ncc24)Nc2ccnc(n2)-c2cnn(C)c2OCC2(CCCCC2)C3)CC1 [Example 3, 1'-methyl-3'-((1-methylpiperidin-4-yl)ethynyl)spiro(cyclohexane-1,6'-8-oxa-3-aza-4(6,1)-pyrazolo[4,3-c]pyridina-2(2,4)-pyrimidina-1(4,5)-pyrazolacyclooctaphane)]"
25.5 nM,8870 ng·h/mL,1540 ng/mL,2.2 h,8.4 nM,794 nM,14.9 nM,14.8 nM,–,"Cn1ncc2c1OCC1(CCCC1)Cn1nc(N3CC[C@@H](C(C)(C)O)C3)c3cnc(cc31)Nc1ccnc-2n1 [Example 13, (R)-2-(1-(1'-methylspiro[cyclopentane-1,6'-8-oxa-3-aza-4(6,1)-pyrazolo[4,3-c]pyridina-2(2,4)-pyrimidina-1(4,5)-pyrazolacyclooctaphane]-3'-yl)pyrrolidin-3-yl)propan-2-ol]"
5 nM,5320 ng·h/mL,882 ng/mL,2.4 h,3.5 nM,1720 nM,3.6 nM,2.8 nM,–,"Cn1ncc2c1OCC1(CCCC1)Cn1nc(N3CC[C@H](CS(=O)(=O)C(F)(F)F)C3)c3cnc(cc31)Nc1ccnc-2n1 [Example 14, (S)-1'-methyl-3'-(3-(((trifluoromethyl)sulfonyl)methyl)pyrrolidin-1-yl)spiro[cyclopentane-1,6'-8-oxa-3-aza-4(6,1)-pyrazolo[4,3-c]pyridina-2(2,4)-pyrimidina-1(4,5)-pyrazolacyclooctaphane]]"
9.6 nM,4540 ng·h/mL,1400 ng/mL,0.66 h,1.8 nM,622 nM,4 nM,1.6 nM,–,"CCS(=O)(=O)C[C@@H]1CCN(c2nn3c4cc(ncc24)Nc2ccnc(n2)-c2cnn(C)c2OCC2(CCCC2)C3)C1 [Example 29, (R)-3' -(3-((ethylsulfonyl)methyl)pyrrolidin-1-yl)-1'-me thylspiro(cyclopentane-1,6' -8-oxa-3-aza-4(6,1)-pyrazolo[4,3-c]pyridina-2(2,4)-pyrimidina-1(4,5)-pyrazolacyclooctaphane)]"
2.7 nM,2390 ng·h/mL,694 ng/mL,4.7 h,1.6 nM,375 nM,1.4 nM,0.7 nM,–,"Cn1ncc2c1OCC1(CCCC1)Cn1nc(N3CC[C@H](CS(C)(=O)=O)C3)c3cnc(cc31)Nc1ccnc-2n1 [Example 34, (S)-1'methyl-3'-(3-((methylsulfonyl)methyl)pyrrolidin-1-yl)spiro(cyclopentane-1,6 '-8-oxa-3-aza-4(6,1)-pyrazolo[4,3-c]pyridina-2(2,4)-pyrimidina-1(4,5)-pyrazolacyclooctaphane)]"
2.2 nM,5570 ng·h/mL,1500 ng/mL,2.6 h,0.7 nM,345 nM,1 nM,0.9 nM,81.5%,"CCS(=O)(=O)C[C@H]1CCN(c2nn3c4cc(ncc24)Nc2ccnc(n2)-c2cnn(C)c2OCC2(CCCC2)C3)C1 [Example 35, (S)-3'-(3-((ethylsulfonyl)methyl)pyrrolidin-1-yl)-1'-met hylspiro(cyclopentane-1,6'-8-oxa-3-aza-4(6,1)-pyrazolo [4,3-c]pyridina-2(2,4)-pyrimidina-1(4,5)-pyrazolacyclooctaphane)]"
15.8 nM,10100 ng·h/mL,2070 ng/mL,3.1 h,3.2 nM,554 nM,6.4 nM,6.1 nM,–,"CCS(=O)(=O)C[C@H]1CCN(c2nn3c4cc(ncc24)Nc2ccnc(n2)-c2cnn(C)c2OCC2(CCCCC2)C3)C1 [Example 37, (S)-1'-methyl-3'-(3-((ethylsulfonyl)methyl)pyrrolidin-1-yl)spiro(cyclohexane-1,6'-8-oxa-3-aza-4(6,1)-pyrazolo [4,3-c]pyridina-2(2,4)-pyrimidina-1(4,5)-pyrazolacyclooctaphane)]"
299 nM,–,–,–,64.9 nM,2700 nM,262 nM,40.9 nM,–,"CC#Cc1nn2c3cc(ncc13)Nc1ccnc(n1)-c1cnn(C)c1OCC[C@@H]2C [Example A1, (S)-1^1,5-dimethyl-4^3-(prop-1-yn-1-yl)-1^1H,4^1H-8-oxa-3-aza-4(6,1)-pyrazolo[4,3-c]py ridina-2(2,4)-pyrimidina-1(4,5)-pyrazolacyclooctaphane]"
380 nM,–,–,–,244 nM,2680 nM,186 nM,176 nM,–,"C[C@H]1CCOc2c(cnn2C)-c2nccc(n2)Nc2cc3c(cn2)c(N2CC(CS(C)(=O)=O)C2)nn31 [Example A4, (S)-1^1,5-dimethyl-4^3-(3-((methylsulfonyl)methyl)azetidin-1-yl)-1^1H,4^1H-8-oxa-3-az a-4(6,1)-pyrazolo[4,3-c]pyri dina-2(2,4)-pyrimidina-1(4, 5)-pyrazolacyclooctaphane]"
